In PubChem BioAssay AID256 (DTP/NCI, 2004):
Values joined by “and” are separate entries in the source; they are usually repeats but may differ in a detail not shown here. Identical values can stand only once. Toxic doses and inconclusive results are not listed. How the source made its calls: active means survival T/C of 150% or more; inactive means T/C below 125% in these data.

System: CD2F1 mice, L1210 leukemia ip, survival T/C
Assay: NCI In Vivo Anticancer Drug Screen. Data for tumor model L1210 Leukemia (intraperitoneal) in CD2F1 (CDF1) mice
Details: higher = longer survival
Summary of the method: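 Mice carrying a transplanted tumor received test compound or vehicle alone. The value is the measurement in the treated group divided by that in the vehicle-treated control group.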

[1] = endpoint: mean survival time, dose: 12.5 mg/kg/injection, schedule: Q04DX003 (ip), vehicle: saline
[2] = endpoint: mean survival time, dose: 25.0 mg/kg/injection, schedule: Q01DX009 (ip), vehicle: saline with Tween-80
[3] = endpoint: mean survival time, dose: 50.0 mg/kg/injection, schedule: Q01DX009 (ip), vehicle: saline with Tween-80
[4] = endpoint: mean survival time, dose: 100.0 mg/kg/injection, schedule: Q01DX009 (ip), vehicle: saline with Tween-80
[5] = endpoint: mean survival time, dose: 100.0 mg/kg/injection, schedule: Q04DX003 (ip), vehicle: saline with Tween-80
[6] = endpoint: mean survival time, dose: 200.0 mg/kg/injection, schedule: Q01DX009 (ip), vehicle: saline with Tween-80
[7] = endpoint: mean survival time, dose: 200.0 mg/kg/injection, schedule: Q04DX003 (ip), vehicle: saline with Tween-80
[8] = endpoint: mean survival time, dose: 400.0 mg/kg/injection, schedule: Q01DX009 (ip), vehicle: saline with Tween-80
[9] = endpoint: mean survival time, dose: 400.0 mg/kg/injection, schedule: Q04DX003 (ip), vehicle: saline with Tween-80
[10] = endpoint: mean survival time, dose: 6.25 mg/kg/injection, schedule: Q01DX009 (ip), vehicle: Klucel (hydroxypropylcellulose) (HPC)
[11] = endpoint: mean survival time, dose: 12.5 mg/kg/injection, schedule: Q01DX009 (ip), vehicle: Klucel (hydroxypropylcellulose) (HPC)
[12] = endpoint: mean survival time, dose: 25.0 mg/kg/injection, schedule: Q01DX009 (ip), vehicle: Klucel (hydroxypropylcellulose) (HPC)
[13] = endpoint: mean survival time, dose: 100.0 mg/kg/injection, schedule: Q01DX001 (ip), vehicle: saline with Tween-80
[14] = endpoint: mean survival time, dose: 200.0 mg/kg/injection, schedule: Q01DX001 (ip), vehicle: saline with Tween-80
[15] = endpoint: mean survival time, dose: 400.0 mg/kg/injection, schedule: Q01DX001 (ip), vehicle: saline with Tween-80

Measured: T/C

C[N+](C)(C)CCCCC[N+](C)(C)C
inactive: endpoint: mean survival time, dose: 6.25 mg/kg/injection, schedule: Q01DX009 (ip), vehicle: saline sonified 93 % of control | endpoint: mean survival time, dose: 6.25 mg/kg/injection, schedule: Q04DX003 (ip), vehicle: saline 103 % of control | endpoint: mean survival time, dose: 12.5 mg/kg/injection, schedule: Q01DX009 (ip), vehicle: saline sonified 90 % of control | [1] 95 % of control | endpoint: mean survival time, dose: 25.0 mg/kg/injection, schedule: Q01DX009 (ip), vehicle: saline sonified 93 % of control | [2] 100 % of control | endpoint: mean survival time, dose: 25.0 mg/kg/injection, schedule: Q04DX003 (ip), vehicle: saline 101 % of control | [3] 108 % of control | [4] 103 % of control | [5] 86 % of control

O=[N+]([O-])c1ccc(C(O)(c2ccc([N+](=O)[O-])cc2)c2ccc([N+](=O)[O-])cc2)cc1
inactive: [4] 96 % of control | [5] 98 % of control | [6] 95 % of control | [7] 97 % of control | [8] 96 % of control | [9] 97 % of control

C[n+]1c(-c2cccc(-c3ccccc3)c2)c2cc([N+](=O)[O-])ccc2c2ccccc21
inactive: endpoint: mean survival time, dose: 1.56 mg/kg/injection, schedule: Q01DX009 (ip), vehicle: Klucel (hydroxypropylcellulose) (HPC) 93 % of control | endpoint: mean survival time, dose: 3.13 mg/kg/injection, schedule: Q01DX009 (ip), vehicle: Klucel (hydroxypropylcellulose) (HPC) 94 % of control | [10] 98 % of control | [11] 92 % of control | [12] 96 % of control | endpoint: mean survival time, dose: 25.0 mg/kg/injection, schedule: Q01DX009 (ip), vehicle: water 97 % of control

Clc1ccc2c(c1)Cc1cc(N(CCBr)CCBr)ccc1-2
inactive: [4] 104 % of control | [6] 106 % of control | [8] 110 % of control

O=C(CNC(=O)Nc1cccc(C(F)(F)F)c1)N/N=C/c1ccccc1O
inactive: endpoint: mean survival time, dose: 12.5 mg/kg/injection, schedule: Q01DX009 (ip), vehicle: saline with Tween-80 95 % of control | [2] 87 % of control | [3] 88 % of control | [4] 100 % of control | [6] 103 % of control

CC1(C)CC(=O)NC1=O
inactive: endpoint: mean survival time, dose: 100.0 mg/kg/injection, schedule: Q01DX009 (ip), vehicle: saline 100 % of control | endpoint: mean survival time, dose: 200.0 mg/kg/injection, schedule: Q01DX009 (ip), vehicle: saline 102 % of control | endpoint: mean survival time, dose: 400.0 mg/kg/injection, schedule: Q01DX009 (ip), vehicle: saline 94 % of control

COC(=O)C1C(C(=O)OC)C2C3C4C1C1C2C1C43 (configuration not stated)
inactive: [5] 102 % of control | [7] 102 % of control | [9] 104 % of control

Nc1ncnc2nc(-c3ccc(C(=O)c4cccc([N+](=O)[O-])c4)cc3)[nH]c12
inactive: endpoint: mean survival time, dose: 100.0 mg/kg/injection, schedule: Q04DX003 (ip), vehicle: Klucel (hydroxypropylcellulose) (HPC) 108 % of control | endpoint: mean survival time, dose: 200.0 mg/kg/injection, schedule: Q04DX003 (ip), vehicle: Klucel (hydroxypropylcellulose) (HPC) 102 % of control | endpoint: mean survival time, dose: 400.0 mg/kg/injection, schedule: Q04DX003 (ip), vehicle: Klucel (hydroxypropylcellulose) (HPC) 100 % of control

COc1ccc(C2NN(C)C3(O)C(=O)N(C4CCCCC4)CC23)cc1 (configuration not stated)
inactive: [13] 107 % of control | [14] 94 % of control | [15] 96 % of control

CC(=O)Nc1ccc(/C=C(\C#N)c2ccc(C)cc2)cc1
inactive: [4] 89 % of control | [6] 91 % of control | [8] 100 % of control

O=C1C(=C(C(F)(F)F)C(F)(F)F)CCc2ccc([N+](=O)[O-])cc21
inactive: [4] 102 % of control | [5] 114 % of control | [6] 104 % of control | [7] 101 % of control | [8] 102 % of control | [9] 103 % of control

C=CCC(C(=O)O)(c1ccccc1)c1ccccc1
inactive: endpoint: mean survival time, dose: 50.0 mg/kg/injection, schedule: Q01DX009 (ip), vehicle: Klucel (hydroxypropylcellulose) (HPC) 95 % of control | endpoint: mean survival time, dose: 100.0 mg/kg/injection, schedule: Q01DX009 (ip), vehicle: Klucel (hydroxypropylcellulose) (HPC) 98 % of control | endpoint: mean survival time, dose: 200.0 mg/kg/injection, schedule: Q01DX009 (ip), vehicle: Klucel (hydroxypropylcellulose) (HPC) 98 % of control

Cc1cc(C)c2nc(-c3ccc(Cl)cc3)cc(C(=O)O)c2c1
inactive: endpoint: mean survival time, dose: 100.0 mg/kg/injection, schedule: Q01DX001 (ip), vehicle: saline 96 % of control | endpoint: mean survival time, dose: 100.0 mg/kg/injection, schedule: Q04DX002 (ip), vehicle: Klucel (hydroxypropylcellulose) (HPC) 94 % of control | endpoint: mean survival time, dose: 200.0 mg/kg/injection, schedule: Q04DX002 (ip), vehicle: Klucel (hydroxypropylcellulose) (HPC) 94 % of control

CC(C)(C)OC(=O)NC(CO)C(=O)O (configuration not stated)
inactive: [5] 92 % of control | [7] 86 % of control | [9] 94 % of control

COC(CCC#N)c1ccc(Cl)cc1 (configuration not stated)
inactive: [4] 95 % of control | [5] 97 % of control | [6] 101 % of control | [7] 102 % of control | [8] 96 % of control | [9] 98 % of control

Nc1nc(N)c2c(=O)c(CNc3ccc(C(=O)NC(CCC(=O)O)C(=O)O)cc3)c[nH]c2n1 (configuration not stated)
inactive: endpoint: mean survival time, dose: 0.25 mg/kg/injection, schedule: Q01DX005 (ip), vehicle: sodium bicarbonate 104 % of control | endpoint: mean survival time, dose: 0.5 mg/kg/injection, schedule: Q01DX005 (ip), vehicle: sodium bicarbonate 119 % of control and 100 % of control | endpoint: mean survival time, dose: 1.0 mg/kg/injection, schedule: Q01DX005 (ip), vehicle: sodium bicarbonate 113 % of control and 100 % of control | endpoint: mean survival time, dose: 2.0 mg/kg/injection, schedule: Q01DX005 (ip), vehicle: sodium bicarbonate 98 % of control and 106 % of control | endpoint: mean survival time, dose: 4.0 mg/kg/injection, schedule: Q01DX005 (ip), vehicle: sodium bicarbonate 91 % of control and 104 % of control | endpoint: mean survival time, dose: 16.0 mg/kg/injection, schedule: Q01DX005 (ip), vehicle: sodium bicarbonate 98 % of control

C1=CC(c2ccccc2)C(c2ccccc2)C(c2ccccc2)=C1 (configuration not stated)
inactive: [13] 95 % of control | [14] 87 % of control | [15] 87 % of control

O=S(=O)([O][Hg][CH2]C1Cc2ccccc2O1)[O][Hg][CH2]C1Cc2ccccc2O1 (configuration not stated)
inactive: [10] 95 % of control | [11] 92 % of control | [12] 96 % of control | endpoint: median survival time, dose: 6.25 mg/kg/injection, schedule: Q04DX003 (ip), vehicle: saline with Tween-80 100 % of control | endpoint: median survival time, dose: 12.5 mg/kg/injection, schedule: Q04DX003 (ip), vehicle: saline with Tween-80 100 % of control | endpoint: median survival time, dose: 25.0 mg/kg/injection, schedule: Q04DX003 (ip), vehicle: saline with Tween-80 100 % of control

O=CN(O)CC(=O)O.[Cu]
inactive: endpoint: mean survival time, dose: 3.12 mg/kg/injection, schedule: Q01DX009 (ip), vehicle: acetone 95 % of control | endpoint: mean survival time, dose: 6.25 mg/kg/injection, schedule: Q01DX009 (ip), vehicle: acetone 101 % of control | [1] 100 % of control

O=C(CBr)c1ccccc1
inactive: endpoint: mean survival time, dose: 5.0 mg/kg/injection, schedule: Q01DX009 (ip), vehicle: saline with Tween-80 97 % of control | endpoint: mean survival time, dose: 10.0 mg/kg/injection, schedule: Q01DX009 (ip), vehicle: saline with Tween-80 93 % of control

CC(=O)/C(C)=C\c1ccccc1
inactive: [4] 96 % of control | [5] 92 % of control | [6] 94 % of control | [7] 94 % of control | [8] 98 % of control | [9] 94 % of control

O=[N+]([O-])c1ccc2ccccc2c1-c1c([N+](=O)[O-])ccc2ccccc12
inactive: [3] 92 % of control | [4] 90 % of control | [5] 93 % of control | [6] 90 % of control | [7] 87 % of control
